Test results taken from patent publication US7387997B2 (University of Utah, priority 2004, dated 2008).
Values joined by “and” are separate entries in the source; they are usually repeats but may differ in a detail not shown here. Identical values can stand only once. “Also recorded” adds a separate entry of the source. Where a SMILES comes first, the peptide text is derived from it. Bridges are numbered along the chain shown (N, C = ends).

Key:
Rat α3β2 nAChR = biological target: T1, Rat α3β2 nAChR (Rattus norvegicus, UniProt P04757+P12390); test: cell-based; format: cell-based
T1 construct: expressed in transfected cells; host or cells: Xenopus laevis oocytes, cRNA injected
T1 sequence (P04757 26-499 limits assumed): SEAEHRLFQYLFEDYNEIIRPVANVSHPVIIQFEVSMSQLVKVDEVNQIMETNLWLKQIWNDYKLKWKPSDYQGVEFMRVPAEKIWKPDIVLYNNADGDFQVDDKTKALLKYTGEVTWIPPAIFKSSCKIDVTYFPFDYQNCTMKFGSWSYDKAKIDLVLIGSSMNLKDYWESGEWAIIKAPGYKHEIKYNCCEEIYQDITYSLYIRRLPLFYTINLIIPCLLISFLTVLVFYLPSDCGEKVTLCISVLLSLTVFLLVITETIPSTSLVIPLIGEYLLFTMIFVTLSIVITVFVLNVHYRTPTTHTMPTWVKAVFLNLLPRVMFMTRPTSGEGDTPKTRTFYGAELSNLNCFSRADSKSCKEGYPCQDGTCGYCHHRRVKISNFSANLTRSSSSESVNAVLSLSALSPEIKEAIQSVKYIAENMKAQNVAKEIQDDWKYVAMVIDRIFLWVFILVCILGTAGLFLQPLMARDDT
T1 sequence (P12390 25-500 limits assumed): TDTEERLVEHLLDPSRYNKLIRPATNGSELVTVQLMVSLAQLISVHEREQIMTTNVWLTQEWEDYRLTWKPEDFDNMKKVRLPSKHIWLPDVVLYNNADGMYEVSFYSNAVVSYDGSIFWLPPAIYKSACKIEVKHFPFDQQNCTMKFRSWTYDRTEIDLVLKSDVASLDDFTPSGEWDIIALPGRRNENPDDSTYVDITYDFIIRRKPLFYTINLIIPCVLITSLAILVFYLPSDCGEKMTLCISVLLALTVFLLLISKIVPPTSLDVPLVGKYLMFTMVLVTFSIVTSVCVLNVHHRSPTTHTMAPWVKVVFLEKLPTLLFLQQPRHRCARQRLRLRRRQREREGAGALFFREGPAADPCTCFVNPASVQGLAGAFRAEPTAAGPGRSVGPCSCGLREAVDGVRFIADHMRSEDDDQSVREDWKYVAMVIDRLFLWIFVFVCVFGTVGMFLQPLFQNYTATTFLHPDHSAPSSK

α6/α3β4 nAChR = biological target: T2, α6/α3β4 nAChR (Rattus norvegicus, UniProt P04757+P12392+P43143); test: cell-based
T2 construct: amino acids 1 to 237 of the rat α6 subunit protein; amino acids 233 to 499 of the rat α3 subunit protein; expressed in transfected cells; host or cells: Xenopus laevis oocytes, cRNA injected
T2 sequence (P43143 31-237 limits assumed): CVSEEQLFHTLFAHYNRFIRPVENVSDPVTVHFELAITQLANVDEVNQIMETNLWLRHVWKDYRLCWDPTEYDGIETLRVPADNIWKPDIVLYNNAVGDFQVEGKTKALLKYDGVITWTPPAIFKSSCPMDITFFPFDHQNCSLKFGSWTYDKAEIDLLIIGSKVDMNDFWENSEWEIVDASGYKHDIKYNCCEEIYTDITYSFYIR
T2 sequence (P04757 233-499 limits assumed): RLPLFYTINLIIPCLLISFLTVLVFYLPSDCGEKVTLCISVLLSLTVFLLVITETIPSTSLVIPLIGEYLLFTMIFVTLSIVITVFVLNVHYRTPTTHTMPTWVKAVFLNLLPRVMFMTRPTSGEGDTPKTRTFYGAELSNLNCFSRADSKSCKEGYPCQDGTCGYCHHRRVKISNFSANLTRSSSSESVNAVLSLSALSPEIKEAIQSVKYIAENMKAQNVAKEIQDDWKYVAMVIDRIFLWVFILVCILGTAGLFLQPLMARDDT
T2 sequence (P12392 21-495): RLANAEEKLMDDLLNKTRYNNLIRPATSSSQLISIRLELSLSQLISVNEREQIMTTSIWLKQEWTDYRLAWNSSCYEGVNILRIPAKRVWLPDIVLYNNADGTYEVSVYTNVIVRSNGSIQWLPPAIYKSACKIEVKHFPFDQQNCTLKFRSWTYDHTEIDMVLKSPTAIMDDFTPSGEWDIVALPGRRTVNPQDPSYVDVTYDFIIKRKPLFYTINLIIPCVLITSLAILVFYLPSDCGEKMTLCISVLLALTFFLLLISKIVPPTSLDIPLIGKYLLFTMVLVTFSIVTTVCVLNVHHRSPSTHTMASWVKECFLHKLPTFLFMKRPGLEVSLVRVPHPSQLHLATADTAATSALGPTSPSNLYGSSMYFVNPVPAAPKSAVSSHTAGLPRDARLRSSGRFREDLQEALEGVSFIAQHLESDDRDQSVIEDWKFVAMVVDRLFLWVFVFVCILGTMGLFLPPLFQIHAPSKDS

Rat α6/α3β2β3 nAChR = biological target: T3, Rat α6/α3β2β3 nAChR (Rattus norvegicus, UniProt P04757+P12390+P43143); test: cell-based; format: cell-based
T3 construct: amino acids 1 to 237 of the rat α6 subunit protein; amino acids 233 to 499 of the rat α3 subunit protein; expressed in transfected cells; host or cells: Xenopus laevis oocytes, cRNA injected (pT7TS/rα6α3 for the chimera)
T3 sequence (P43143 31-237 limits assumed): as the sequence (P43143 31-237 limits assumed) above
T3 sequence (P04757 233-499 limits assumed): as the sequence (P04757 233-499 limits assumed) above
T3 sequence (P12390 25-500 limits assumed): as the sequence (P12390 25-500 limits assumed) above

α2β2 nAChR = biological target: T4, α2β2 nAChR (Rattus norvegicus, UniProt P12389+P12390); test: cell-based; format: cell-based
T4 construct: expressed in transfected cells; host or cells: Xenopus laevis oocytes, cRNA injected
T4 sequence (P12389 28-511 limits assumed): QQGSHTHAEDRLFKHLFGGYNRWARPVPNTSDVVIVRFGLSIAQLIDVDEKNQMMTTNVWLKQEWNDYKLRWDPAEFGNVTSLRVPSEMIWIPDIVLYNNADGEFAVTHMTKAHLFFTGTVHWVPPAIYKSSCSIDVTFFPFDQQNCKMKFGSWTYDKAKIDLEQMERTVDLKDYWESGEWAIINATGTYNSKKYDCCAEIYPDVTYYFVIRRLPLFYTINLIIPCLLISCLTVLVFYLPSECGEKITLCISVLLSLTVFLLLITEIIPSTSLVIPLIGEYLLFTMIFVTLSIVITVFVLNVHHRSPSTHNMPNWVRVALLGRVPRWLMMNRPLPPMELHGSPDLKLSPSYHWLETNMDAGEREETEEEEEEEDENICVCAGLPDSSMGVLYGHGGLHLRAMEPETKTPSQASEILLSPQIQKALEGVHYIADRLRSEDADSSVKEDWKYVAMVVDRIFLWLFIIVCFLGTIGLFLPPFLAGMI
T4 sequence (P12390 25-500 limits assumed): as the sequence (P12390 25-500 limits assumed) above

α6/α3β2 nAChR = biological target: T5, α6/α3β2 nAChR (Rattus norvegicus, UniProt P04757+P12390+P43143); test: cell-based
T5 construct: amino acids 1 to 237 of the rat α6 subunit protein; amino acids 233 to 499 of the rat α3 subunit protein; expressed in transfected cells; host or cells: Xenopus laevis oocytes, cRNA injected
T5 sequence (P43143 31-237 limits assumed): as the sequence (P43143 31-237 limits assumed) above
T5 sequence (P04757 233-499 limits assumed): as the sequence (P04757 233-499 limits assumed) above
T5 sequence (P12390 25-500 limits assumed): as the sequence (P12390 25-500 limits assumed) above

α2β4 nAChR = biological target: T6, α2β4 nAChR (Rattus norvegicus, UniProt P12389+P12392); test: cell-based; format: cell-based
T6 construct: expressed in transfected cells; host or cells: Xenopus laevis oocytes, cRNA injected
T6 sequence (P12389 28-511 limits assumed): as the sequence (P12389 28-511 limits assumed) above
T6 sequence (P12392 21-495 limits assumed): as the sequence (P12392 21-495) above

[1] = biological target: Mouse CNS α-MII Site (putative α6β2* nAChRs); format: binding
α4β4 nAChR = biological target: T7, α4β4 nAChR (Rattus norvegicus, UniProt P09483+P12392); test: cell-based; format: cell-based
T7 construct: expressed in transfected cells; host or cells: Xenopus laevis oocytes, cRNA injected
T7 sequence (P09483 31-630 limits assumed): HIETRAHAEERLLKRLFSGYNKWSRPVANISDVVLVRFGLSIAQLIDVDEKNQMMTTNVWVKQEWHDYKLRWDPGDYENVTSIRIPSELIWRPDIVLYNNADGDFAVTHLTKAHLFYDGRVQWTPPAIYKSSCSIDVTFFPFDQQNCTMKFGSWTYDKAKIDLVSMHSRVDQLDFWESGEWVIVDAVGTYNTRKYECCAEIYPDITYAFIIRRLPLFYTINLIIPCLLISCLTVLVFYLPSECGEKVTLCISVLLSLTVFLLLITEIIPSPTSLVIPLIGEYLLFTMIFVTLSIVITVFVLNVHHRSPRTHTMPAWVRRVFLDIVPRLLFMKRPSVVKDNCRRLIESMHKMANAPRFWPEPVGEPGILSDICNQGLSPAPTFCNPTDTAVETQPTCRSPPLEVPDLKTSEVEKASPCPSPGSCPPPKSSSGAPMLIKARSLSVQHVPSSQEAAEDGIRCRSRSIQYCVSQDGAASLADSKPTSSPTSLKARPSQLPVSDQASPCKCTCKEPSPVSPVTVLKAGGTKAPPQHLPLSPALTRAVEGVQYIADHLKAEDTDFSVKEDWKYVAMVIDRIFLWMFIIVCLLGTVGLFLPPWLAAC
T7 sequence (P12392 21-495 limits assumed): as the sequence (P12392 21-495) above

rat α3β4 nAChR = biological target: T8, rat α3β4 nAChR (Rattus norvegicus, UniProt P04757+P12392); test: cell-based; format: cell-based
T8 construct: expressed in transfected cells; host or cells: Xenopus laevis oocytes, cRNA injected
T8 sequence (P04757 26-499 limits assumed): as the sequence (P04757 26-499 limits assumed) above
T8 sequence (P12392 21-495 limits assumed): as the sequence (P12392 21-495) above

α7 nAChR = biological target: T9, α7 nAChR (Rattus norvegicus, UniProt Q05941); test: cell-based; format: cell-based
T9 construct: expressed in transfected cells; host or cells: Xenopus laevis oocytes, cRNA injected
T9 sequence (Q05941 23-502 limits assumed): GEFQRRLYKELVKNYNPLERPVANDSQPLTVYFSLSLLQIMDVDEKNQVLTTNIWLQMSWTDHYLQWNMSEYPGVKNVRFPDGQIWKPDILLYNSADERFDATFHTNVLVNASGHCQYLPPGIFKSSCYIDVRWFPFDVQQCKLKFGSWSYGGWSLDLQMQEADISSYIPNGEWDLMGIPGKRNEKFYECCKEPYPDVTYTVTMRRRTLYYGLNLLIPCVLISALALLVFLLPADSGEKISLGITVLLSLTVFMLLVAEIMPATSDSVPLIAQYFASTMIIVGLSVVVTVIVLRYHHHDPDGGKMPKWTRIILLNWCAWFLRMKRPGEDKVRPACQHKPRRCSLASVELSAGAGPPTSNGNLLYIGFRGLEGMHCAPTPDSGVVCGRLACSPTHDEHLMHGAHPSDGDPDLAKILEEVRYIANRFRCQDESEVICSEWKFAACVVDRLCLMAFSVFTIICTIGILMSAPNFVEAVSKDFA

α4β2 nAChR = biological target: T10, α4β2 nAChR (Rattus norvegicus, UniProt P09483+P12390); format: cell-based
T10 construct: expressed in transfected cells; host or cells: Xenopus laevis oocytes, cRNA injected
T10 sequence (P09483 31-630 limits assumed): as the sequence (P09483 31-630 limits assumed) above
T10 sequence (P12390 25-500 limits assumed): as the sequence (P12390 25-500 limits assumed) above

rat α6β4 nAChR = biological target: T11, rat α6β4 nAChR (Rattus norvegicus, UniProt P12392+P43143); format: cell-based
T11 construct: expressed in transfected cells; host or cells: Xenopus laevis oocytes, cRNA injected (50 ng each)
T11 sequence (P43143 31-493): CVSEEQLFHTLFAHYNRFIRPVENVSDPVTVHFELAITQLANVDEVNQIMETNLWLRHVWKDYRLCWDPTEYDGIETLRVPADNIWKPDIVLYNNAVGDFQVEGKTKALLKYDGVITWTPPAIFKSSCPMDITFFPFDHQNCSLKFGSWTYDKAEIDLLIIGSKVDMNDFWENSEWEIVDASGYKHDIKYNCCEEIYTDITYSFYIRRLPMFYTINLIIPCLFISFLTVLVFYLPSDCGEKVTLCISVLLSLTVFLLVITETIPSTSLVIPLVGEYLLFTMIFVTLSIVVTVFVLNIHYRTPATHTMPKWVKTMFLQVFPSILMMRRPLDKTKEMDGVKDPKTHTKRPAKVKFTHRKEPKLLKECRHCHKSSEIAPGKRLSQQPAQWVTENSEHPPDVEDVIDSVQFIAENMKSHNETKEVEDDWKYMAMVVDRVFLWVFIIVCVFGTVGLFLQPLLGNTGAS
T11 sequence (P12392 21-495): as the sequence (P12392 21-495) above

CC(C)C[C@@H]1NC(=O)[C@H](Cc2c[nH]cn2)NC(=O)[C@@H]2CSSC[C@H](NC(=O)CN)C(=O)N[C@@H](CSSC[C@@H](C(N)=O)NC(=O)[C@H](CC(C)C)NC(=O)[C@H](CC(N)=O)NC(=O)[C@H](CO)NC(=O)[C@H](Cc3c[nH]cn3)NC(=O)[C@H](C)NC1=O)C(=O)N[C@@H](CO)C(=O)N[C@@H](CC(N)=O)C(=O)N1CCC[C@H]1C(=O)N[C@@H](C(C)C)C(=O)N2 [MII[E11A]] (H-GCCSNPVCHLAHSNLC-NH2; disulfide 2-8, 3-16)
IC50 (Rat α3β2 nAChR): 8.72 nM | Ratio IC50 α3β2/IC50 α6/α3β2β3 (Rat α3β2 nAChR): 54.5 | IC50 (α6/α3β4 nAChR): 6.44 nM | Ratio nAChR subtype IC50/α6/α3β2β3 IC50, α6/α3β4 (α6/α3β4 nAChR): 40.3 | IC50 (Rat α6/α3β2β3 nAChR): 0.16 nM | Ratio nAChR subtype IC50/α6/α3β2β3 IC50, α6/α3β2β3 (Rat α6/α3β2β3 nAChR): 1.00 | IC50 (α2β2 nAChR): > 10000 nM | Ratio nAChR subtype IC50/α6/α3β2β3 IC50, α2β2 (α2β2 nAChR): >62,500 | IC50 (α6/α3β2 nAChR): 0.154 nM | Ratio nAChR subtype IC50/α6/α3β2β3 IC50, α6/α3β2 (α6/α3β2 nAChR): 0.962 | IC50 (α2β4 nAChR): > 10000 nM | Ratio nAChR subtype IC50/α6/α3β2β3 IC50, α2β4 (α2β4 nAChR): >62,500 | Ki [1]: 0.27 nM | IC50 (α4β4 nAChR): > 10000 nM | Ratio nAChR subtype IC50/α6/α3β2β3 IC50, α4β4 (α4β4 nAChR): >62,500 | IC50 (rat α3β4 nAChR): 2100 nM | Ratio nAChR subtype IC50/α6/α3β2β3 IC50, α3β4 (rat α3β4 nAChR): 13,100 | IC50 (α7 nAChR): 1050 nM | Ratio nAChR subtype IC50/α6/α3β2β3 IC50, α7 (α7 nAChR): 6,570

CC(C)C[C@@H]1NC(=O)[C@H](C)NC(=O)[C@@H]2CSSC[C@H](NC(=O)CN)C(=O)N[C@@H](CSSC[C@@H](C(N)=O)NC(=O)[C@H](C)NC(=O)[C@H](CC(N)=O)NC(=O)[C@H](CO)NC(=O)[C@H](Cc3c[nH]cn3)NC(=O)[C@H](CCC(=O)O)NC1=O)C(=O)N[C@@H](CO)C(=O)N[C@@H](CC(N)=O)C(=O)N1CCC[C@H]1C(=O)N[C@@H](C(C)C)C(=O)N2 [MII[H9A; L15A]] (H-GCCSNPVCALEHSNAC-NH2; disulfide 2-8, 3-16)
Hill slope, α3β2 (Rat α3β2 nAChR): 0.48±0.04 | ACh response, percentage of control, Rα4β2 (α4β2 nAChR): 98.5 ± 4.4 % of control and 101 ± 2.5 % of control | activity at α4β2 (in words) (α4β2 nAChR): low or no activity; also recorded: little or no activity | ACh response, percentage of control, Rα2β2 (α2β2 nAChR): 102 ± 1.4 % of control and 103 ± 1.9 % of control | activity at α2β2 (in words) (α2β2 nAChR): low or no activity; also recorded: little or no activity | ACh response, percentage of control, Rα2β4 (α2β4 nAChR): 96.7 ± 3.2 % of control and 95.9 ± 2.3 % of control | activity at α2β4 (in words) (α2β4 nAChR): low or no activity; also recorded: little or no activity | Ki [1]: 3.3 nM | ACh response, percentage of control, Rα4β4 (α4β4 nAChR): 99.0 ± 4.0 % of control and 100 ± 5.6 % of control | activity at α4β4 (in words) (α4β4 nAChR): low or no activity; also recorded: little or no activity | Hill slope (nH), α3β4 (rat α3β4 nAChR): 0.75±0.1 | activity at α3β4 (in words) (rat α3β4 nAChR): low or no activity; also recorded: little or no activity | Hill slope (nH), α6β4 (rat α6β4 nAChR): 0.60±0.09 | ACh response, percentage of control, Rα7 (α7 nAChR): 61.4 ± 2.3 % of control and 100 ± 1.5 % of control | activity at α7 (in words) (α7 nAChR): low or no activity; also recorded: little or no activity
